Earlier results as cited in EP4197526A1, “HYDROGEL FORMULATION COMPRISING ZEBULARINE AND RETIONIC ACID” (Uniwersytet Gdanski, priority 2021, dated 2023).
Values joined by “and” are separate entries in the source; they are usually repeats but may differ in a detail not shown here. Identical values can stand only once.

Conditions: literature data

Row | Structure (SMILES) | solubility in water
1 | CC1=C(/C=C/C(C)=C/C=C/C(C)=C/C(=O)O)C(C)(C)CCC1 [retinoic acid] | 0.000063 mg/ml and 0.21 microM
2 | O=c1ncccn1[C@@H]1O[C@H](CO)[C@@H](O)[C@H]1O [zebularine] | up to 50 mg/ml
